Here are results for 4 molecules from ChEMBL document CHEMBL1201862, “PubChem BioAssay data set” (2004).

The structures appear in SMILES notation.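 Grown in 96-well plates, cells were treated for 48 hours with each compound at five concentrations. Insufficient inhibition: endpoint recorded as highest concentration tested. GI50 is the concentration that inhibits growth by half.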 Active and inactive are the calls of the source. No stated cut-off is given here; in the data, active = GI50 up to about 1.1 µM and inactive = higher.

What all share (assay): NCI anticancer screen, dose series, 48 h
Test [1] deals with SNB-19.
Test [2] has as its system NCI-H226.
Test [3] relates to COLO 205.
Test [4] concerns M14.
For test [5], the system named is LOX IMVI.
Test [6] relates to HCT-116.
In test [7] the test system is HCT-15.
Test [8] has as its system SK-MEL-28.
Test [9] concerns PC-3.
The test system of test [10] is NCI-H460.
Test [11] relates to SF-268.
The subject of test [12] is NCI/ADR-RES.
The subject of test [13] is K562.
Test [14] concerns HCC 2998.
For test [15], the system named is SNB-75.
The test system of test [16] is MDA-MB-435.
Test [17] has as its system MOLT-4.
Test [18] concerns OVCAR-4.
Test [19] concerns RXF 393.
For test [20], the system named is BT-549.

For the molecule `Cn1c(=S)sc2nc3ccccc3n2c1=S`, the GI50 in test [1] is 13.7 µM (inactive); in test [2], 21.4 µM (inactive); in test [3] it was 9.51 µM (inactive); in test [4], 4.47 µM (inactive); in test [5], 5.97 µM (inactive); in test [6] it was 2.49 µM (inactive). Moreover, the GI50 in test [7] is 13.2 µM; in [8], 12.4 µM (inactive); in test [9] it was 19.6 µM (inactive); in test [10], 9.86 µM (inactive); in test [11], 10.9 µM (inactive); in [12], 13.4 µM (inactive). The GI50 in test [13] was 2 µM (inactive); in test [14], 19.6 µM (inactive); in test [15] it was 16.5 µM (inactive); in [16] it was 7.45 µM (inactive); in [17] it was 5.36 µM (inactive); in test [18], 16 µM (inactive). The GI50 in test [19] is 10.9 µM (inactive).
In the case of `O=C1Nc2ccccc2/C1=c1\[nH]c(=O)/c(=C\c2ccc(OCc3ccccc3)cn2)[nH]c1=O`, the GI50 in test [1] is 31.4 µM (inactive); in test [2] it was > 100 µM (inactive); in test [3], > 100 µM (inactive); in test [4], 56.6 µM (inactive); in test [5] it was > 100 µM (inactive); in [6] it was 85.7 µM (inactive). Besides, the GI50 in [7] is 41.1 µM; in test [8], > 100 µM (inactive); in [9] it was > 100 µM (inactive); in test [10], > 100 µM (inactive); in test [11], 21.2 µM (inactive); in [12], 91.6 µM (inactive). Moreover, the GI50 in test [13] is 20.4 µM (inactive); in test [14] it was > 100 µM (inactive); in [15] it was 4.21 µM (inactive); in [16] it was 44.1 µM (inactive); in test [17], 52.8 µM (inactive); in test [18], 72.4 µM (inactive). The GI50 in test [19] was 8.17 µM (inactive).
On to `CC1(C)O[C@@H](CP(c2ccccc2)c2ccccc2)[C@H](CP(c2ccccc2)c2ccccc2)O1`, for which the GI50 in [1] is 4.05 µM (inactive); in [2], 6.52 µM (inactive); in test [3], 0.632 µM (active); in test [4], 5.94 µM (inactive); in [20], 2.96 µM (inactive); in [5], 1.82 µM (inactive). The GI50 is 1.84 µM (inactive) in test [6]; 12.3 µM in [7]; 12.3 µM (inactive) in test [8]; 4.03 µM (inactive) in test [10]; 5.96 µM (inactive) in test [11]; 12.4 µM (inactive) in [12]. Moreover, the GI50 in test [15] is 6.55 µM (inactive); in [16] it was 6.03 µM (inactive); in [17], 2.69 µM (inactive); in test [18], 9.08 µM (inactive); in test [19], 8.15 µM (inactive).
With `O=C1C[C@H]2[C@H](c3ccc(Br)cc3)[C@H]3C(=O)c4ccccc4NC(=O)[C@@H]3[C@@]2(O)c2ccccc2N1`, the GI50 in test [1] is 38.2 µM (inactive); in test [2], 14.4 µM (inactive); in [3], 14.8 µM (inactive); in [4], 12.3 µM (inactive); in test [5], 13.8 µM (inactive); in [6], 12.3 µM (inactive). In addition, the GI50 in test [7] is 27.9 µM; in test [8], 26.5 µM (inactive); in test [9], 8.15 µM (inactive); in test [10], 25.5 µM (inactive); in test [11], 19.1 µM (inactive); in [12] it was 14.9 µM (inactive). The GI50 was 12 µM (inactive) in [13]; 11.7 µM (inactive) in test [14]; 4.53 µM (inactive) in [15]; 10 µM (inactive) in test [16]; 3.94 µM (inactive) in test [17]; 12.5 µM (inactive) in [18]. In addition, the GI50 in test [19] was 3.48 µM (inactive).
